Test results: US20240376099A1, “COMPOUNDS AND COMPOSITIONS AS INHIBITORS OF ENDOSOMAL TOLL-LIKE RECEPTORS” (Novartis AG, priority 2016, published 2024)

Target: T1, TLR7 (Homo sapiens, UniProt Q9NYK1)
T1 construct: Fresh blood was collected from normal human donors; endogenous in cells; host or cells: human PBMCs from fresh donor blood
T1 sequence (Q9NYK1 27-1049): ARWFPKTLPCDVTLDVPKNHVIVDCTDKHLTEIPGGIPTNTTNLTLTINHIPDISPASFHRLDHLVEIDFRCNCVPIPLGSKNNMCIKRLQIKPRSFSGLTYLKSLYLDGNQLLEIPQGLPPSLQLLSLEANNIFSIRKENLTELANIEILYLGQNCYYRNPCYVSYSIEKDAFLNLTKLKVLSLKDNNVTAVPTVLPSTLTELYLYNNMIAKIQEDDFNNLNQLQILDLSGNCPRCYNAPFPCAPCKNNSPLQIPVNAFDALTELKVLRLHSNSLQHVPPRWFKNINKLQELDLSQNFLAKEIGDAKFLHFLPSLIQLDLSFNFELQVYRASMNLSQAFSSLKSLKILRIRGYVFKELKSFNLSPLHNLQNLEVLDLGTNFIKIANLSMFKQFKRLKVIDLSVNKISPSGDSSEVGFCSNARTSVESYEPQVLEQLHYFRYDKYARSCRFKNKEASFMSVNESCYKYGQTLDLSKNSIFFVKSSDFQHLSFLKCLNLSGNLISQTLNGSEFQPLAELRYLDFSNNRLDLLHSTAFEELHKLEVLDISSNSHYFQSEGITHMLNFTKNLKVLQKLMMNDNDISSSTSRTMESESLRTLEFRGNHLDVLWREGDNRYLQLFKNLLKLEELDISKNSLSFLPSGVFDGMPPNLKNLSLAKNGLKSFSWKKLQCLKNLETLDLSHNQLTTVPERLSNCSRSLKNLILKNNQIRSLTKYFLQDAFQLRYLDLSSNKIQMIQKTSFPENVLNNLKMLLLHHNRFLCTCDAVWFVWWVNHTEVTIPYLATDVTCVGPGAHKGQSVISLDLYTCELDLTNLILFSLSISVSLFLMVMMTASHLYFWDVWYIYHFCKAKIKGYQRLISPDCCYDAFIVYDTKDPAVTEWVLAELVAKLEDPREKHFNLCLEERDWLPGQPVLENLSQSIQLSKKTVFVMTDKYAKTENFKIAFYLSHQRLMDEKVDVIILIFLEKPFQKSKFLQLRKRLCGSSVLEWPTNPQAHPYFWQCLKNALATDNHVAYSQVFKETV
Assay: huPBMC TLR7 Antagonist IFNα Assay
Type: cell-based
Conditions: human PBMCs stimulated with ssRNA40 10 μg/mL (DOTAP), 14-16 hrs; IFNα2b AlphaLISA read-out
Outline: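 Human PBMCs from fresh donor blood (150,000 cells/well) stimulated 14–16 h at 37 °C with DOTAP-complexed ssRNA40 (final 1 μg/ml for TLR8, 10 μg/mL for TLR7) or ODN2216 (final 0.3 μM, TLR9), 0.25% DMSO, ten-point 1/3 compound dilutions. Supernatant IL-6 read by HTRF (TLR8); IFNα by IFNα2b AlphaLISA (TLR7/TLR9).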

IC50	Structure (SMILES)
318 nM	Cn1ncc2c(N3CCc4c(cnn4CC45CCC(N)(CC4)CC5)C3)nc(N)nc21 [compound 11, 4-(1-((4-aminobicyclo[2.2.2]octan-1-yl)methyl)-6,7-dihydro-1H-pyrazolo[4,3-c]pyridin-5(4H)-yl)-1-methyl-1H-pyrazolo[3,4-d]pyrimidin-6-amine]
841 nM	Cn1ncc2c(N3CCc4nn(CC56CCC(N)(CC5)CC6)cc4C3)nc(N)nc21 [compound 12, 4-(2-((4-aminobicyclo[2.2.2]octan-1-yl)methyl)-6,7-dihydro-2H-pyrazolo[4,3-c]pyridin-5(4H)-yl)-1-methyl-1H-pyrazolo[3,4-d]pyrimidin-6-amine]
42 nM	Cc1nn(CC23CCC(N)(CC2)CC3)c2c1CN(c1nc(N)nc3c1cnn3C)CC2 [compound 13, 4-(1-((4-aminobicyclo[2.2.2]octan-1-yl)methyl)-3-methyl-6,7-dihydro-1H-pyrazolo[4,3-c]pyridin-5(4H)-yl)-1-methyl-1H-pyrazolo[3,4-d]pyrimidin-6-amine]
241 nM	Cc1c2c(nn1CC13CCC(N)(CC1)CC3)CCN(c1nc(N)nc3c1cnn3C)C2 [compound 14, 4-(2-((4-aminobicyclo[2.2.2]octan-1-yl)methyl)-3-methyl-6,7-dihydro-2H-pyrazolo[4,3-c]pyridin-5(4H)-yl)-1-methyl-1H-pyrazolo[3,4-d]pyrimidin-6-amine]
288 nM	Cc1nn(CC23CCC(N)(CC2)CC3)c2c1CN(c1nc(Cl)nc3cnn(C)c13)CC2 [compound 15, 4-((5-(5-chloro-1-methyl-1H-pyrazolo[4,3-d]pyrimidin-7-yl)-3-mehtyl-4,5,6,7-tetrahydro-1H-pyrazolo[4,3-c]pyridin-1-yl)methyl)bicyclo[2.2.2]octan-1-amine]
25 nM	Cc1nc(N2CCc3c(c(C)nn3CC34CCC(N5CCCC5)(CC3)CC4)C2)c2cnn(C)c2n1 [compound 16, 1,6-dimethyl-4-(3-methyl-1-((4-(pyrrolidin-1-yl)bicyclo[2.2.2]octan-1-yl)methyl)-6,7-dihydro-1H-pyrazolo[4,3-c]pyridin-5(4H)-yl)-1H-pyrazolo[3,4-d]pyrimidine]
258 nM	Cc1nc(N2CCc3c(c(C)nn3CC34CCC(N5CCCC5)(CC3)CC4)C2)c2c(n1)c(C)nn2C [compound 17, 1,3,5-trimethyl-7-(3-methyl-1-((4-(pyrrolidin-1-yl)bicyclo[2.2.2]octan-1-yl)methyl)-6,7-dihydro-1H-pyrazolo[4,3-c]pyridin-5(4H)-yl)-1H-pyrazolo[4,3-d]pyrimidine]
245 nM	COCCNC12CCC(Cn3nc(C)c4c3CCN(c3nc(C)nc5c(C)nn(C)c35)C4)(CC1)CC2 [compound 18, N-(2-methoxyethyl)-4-((3-methyl-5-(1,3,5-trimethyl-1H-pyrazolo[4,3-d]pyrimidin-7-yl)-4,5,6,7-tetrahydro-1H-pyrazolo[4,3-c]pyridin-1-yl)methyl)bicyclo[2.2.2]octan-1-amine]
55 nM	Cc1nc(N2CCc3c(c(C)nn3CC34CCC(N5CCOCC5)(CC3)CC4)C2)c2cnn(C)c2n1 [compound 19, 4-(4-((5-(1,6-dimethyl-1H-pyrazolo[3,4-d]pyrimidin-4-yl)-3-methyl-4,5,6,7-tetrahydro-1H-pyrazolo[4,3-c]pyridin-1-yl)methyl)bicyclo[2.2.2]octan-1-yl)morpholine]
25 nM	CCNCC(=O)NC12CCC(Cn3nc(C)c4c3CCN(c3nc(C)nc5[nH]ncc35)C4)(CC1)CC2 [compound 20, 2-(ethylamino)-N-(4-((3-methyl-5-(6-methyl-1H-pyrazolo[3,4-d]pyrimidin-4-yl)-4,5,6,7-tetrahydro-1H-pyrazolo[4,3-c]pyridin-1-yl)methyl)bicyclo[2.2.2]octan-1-yl)acetamide]
24 nM	Cc1nc(N2CCc3c(c(C)nn3CC34CCC(N5CCOCC5)(CC3)CC4)C2)c2cn[nH]c2n1 [compound 21, 4-(4-((3-methyl-5-(6-methyl-1H-pyrazolo[3,4-d]pyrimidin-4-yl)-4,5,6,7-tetrahydro-1H-pyrazolo[4,3-c]pyridin-1-yl)methyl)bicyclo[2.2.2]octan-1-yl)morpholine]
33 nM	CCNCC(=O)NC12CCC(Cn3nc(C)c4c3CCN(c3nc(C)nc5c(C)nn(C)c35)C4)(CC1)CC2 [compound 22, 2-(ethylamino)-N-(4-((3-methyl-5-(1,3,5-trimethyl-1H-pyrazolo[4,3-c]pyrimidin-7-yl)-4,5,6,7-tetrahydro-1H-pyrazolo[4,3-c]pyridin-1-yl)methyl)bicyclo[2.2.2]octan-1-yl)acetamide]
666 nM	Cc1nc(N2CCc3c(c(C)nn3CC34CCC(NCC5COC5)(CC3)CC4)C2)c2c(n1)c(C)nn2C [compound 23, 4-((3-methyl-5-(1,3,5-trimethyl-1H-pyrazolo[4,3-c]pyrimidin-7-yl)-4,5,6,7-tetrahydro-1H-pyrazolo[4,3-c]pyridin-1-yl)methyl)-N-(oxetan-3-ylmethyl)bicyclo[2.2.2]octan-1-amine]
201 nM	Cc1nc(N2CCc3c(c(C)nn3CC34CCC(NC(=O)CCN(C)C)(CC3)CC4)C2)c2c(n1)c(C)nn2C [compound 24, 3-(dimethyalmino)-N-(4-((3-methyl-5-(1,3,5-trimethyl-1H-pyrazolo[4,3-d]pyrimidin-7-yl)-4,5,6,7-tetrahydro-1H-pyrazolo[4,3-c]pyridin-1-yl)methyl)bicyclo[2.2.2]octan-1-yl)propanamide]
565 nM	Cc1nc(N2CCc3c(c(C)nn3CC34CCC(N5CCOCC5)(CC3)CC4)C2)c2c(n1)c(C)nn2C [compound 25, 4-(4-((3-methyl-5-(1,3,5-trimethyl-1H-pyrazolo[4,3-d]pyrimidin-7-yl)-4,5,6,7-tetrahydro-1H-pyrazolo[4,3-c]pyridin-1-yl)methyl)bicyclo[2.2.2]octan-1-yl)morpholine]
15 nM	Cc1nc(N2CCc3c(c(C)nn3CC34CCC(NC5CCC5)(CC3)CC4)C2)c2c(n1)c(C)nn2C [compound 27, N-cyclobutyl-4-((3-methyl-5-(1,3,5-trimethyl-1H-pyrazolo[4,3-d]pyrimidin-7-yl)-4,5,6,7-tetrahydro-1H-pyrazolo[4,3-c]pyridin-1-yl)methyl)bicyclo[2.2.2]octan-1-amine]
840 nM	Cc1nc(N2CCc3c(c(C)nn3CC34CCC(N(C5CCC5)C5CCC5)(CC3)CC4)C2)c2c(n1)c(C)nn2C [compound 28, N,N-dicyclobutyl-4-((3-methyl-5-(1,3,5-trimethyl-1H-pyrazolo[4,3-d]pyrimidin-7-yl)-4,5,6,7-tetrahydro-1H-pyrazolo[4,3-c]pyridin-1-yl)methyl)bicyclo[2.2.2]octan-1-amine]
73 nM	Cc1nc(N2CCc3c(c(C)nn3CC34CCC(N5CCCCC5)(CC3)CC4)C2)c2cn[nH]c2n1 [compound 29, 6-methyl-4-(3-methyl-1-((4-(piperidin-1-yl)bicyclo[2.2.2]octan-1-yl)methyl)-6,7-dihydro-1H-pyrazolo[4,3-c]pyridin-5(4H)-yl)-1H-pyrazolo[3,4-d]pyrimidine]
10 nM	Cc1nc(N2CCc3c(c(C)nn3CC34CCC(N5CCCC5)(CC3)CC4)C2)c2cn[nH]c2n1 [compound 30, 6-methyl-4-(3-methyl-1-((4-(pyrrolidin-1-yl)bicyclo[2.2.2]octan-1-yl)methyl)-6,7-dihydro-1H-pyrazolo[4,3-c]pyridin-5(4H)-yl)-1H-pyrazolo[3,4-d]pyrimidine]
13 nM	Cc1nc(N2CCc3c(c(C)nn3CC34CCC(NCC5(CO)COC5)(CC3)CC4)C2)c2c(n1)c(C)nn2C [compound 31, (3-(((4-((3-methyl-5-(1,3,5-trimethyl-1H-pyrazolo[4,3-d]pyrimidin-7-yl)-4,5,6,7-tetrahydro-1H-pyrazolo[4,3-c]pyridin-1-yl)methyl)bicyclo[2.2.2]octan-1-yl)amino)methyl)oxetan-3-yl)methanol]
55 nM	Cc1nc(N2CCc3c(c(C)nn3CC34CCC(NC(=O)[C@@H]5COCCN5)(CC3)CC4)C2)c2c(n1)c(C)nn2C [compound 33, (S)-N-(4-((3-methyl-5-(1,3,5-trimethyl-1H-pyrazolo[4,3-d]pyrimidin-7-yl)-4,5,6,7-tetrahydro-1H-pyrazolo[4,3-c]pyridin-1-yl)methyl)bicyclo[2.2.2]octan-1-yl)morpholine-3-carboxamide]
